The source of these data is PubChem BioAssay AID1259411 (Chemical Carcinogenesis Research Information System (CCRIS), 2018).

This series concerns rodent carcinogenicity bioassays, tumor incidence. The experiment in a line: CCRIS carcinogenicity studies. The procedure, abridged:
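Archive of carcinogenicity, mutagenicity, tumor promotion and tumor inhibition results drawn from journals, NCI reports and other sources, expert-reviewed; covers 1985-2011 and is no longer updated.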

SMILES strings stand for the structures. Active and inactive are the calls of the source. The rule behind the calls is not given here.

As for `O=c1ccc2ccccc2o1`, the carcinogen call runs as follows: (Species: MOUSE, Strain/Sex: B6C3F1/FEMALE, Route: GAVAGE, Dose: 0, 50, 100, 200 MG/KG BW IN CORN OIL 1/D 5 D/WK FOR 103 WK (STUDY DURATION: 103 WK), Dose: 0, 50, 100, 200 MG/KG BW IN CORN OIL 1/D 5 D/WK FOR 103 WK (STUDY DURATION: 103 WK), Tumor Site: Type of Lesion: LIVER: HEPATOCELLULAR ADENOMA, HEPATOCELLULAR ADENOMA OR CARCINOMA, LUNG: ALVEOLAR/BRONCHIOLAR ADENOMA, ALVEOLAR/BRONCHI) “active; positive”; (Species: MOUSE, Strain/Sex: B6C3F1/MALE, Route: GAVAGE, Dose: 0, 50, 100, 200 MG/KG BW IN CORN OIL 1/D 5 D/WK FOR 103 WK (STUDY DURATION: 103 WK), Dose: 0, 50, 100, 200 MG/KG BW IN CORN OIL 1/D 5 D/WK FOR 103 WK (STUDY DURATION: 103 WK), Tumor Site: Type of Lesion: LUNG: ALVEOLAR/BRONCHIOLAR ADENOMA, ALVEOLAR/BRONCHIOLAR ADENOMA OR CARCINOMA) “active; positive”; (Species: MOUSE, Strain/Sex: CD-1/FEMALE, Route: ORAL, Dose: 0, 300, 1000, 3000 PPM IN DIET FOR THE DURATION OF STUDY (STUDY DURATION: 109 WK), Dose: 0, 300, 1000, 3000 PPM IN DIET FOR THE DURATION OF STUDY (STUDY DURATION: 109 WK)) “inactive; negative”; (Species: MOUSE, Strain/Sex: CD-1/MALE, Route: ORAL, Dose: 0, 300, 1000, 3000 PPM IN DIET FOR THE DURATION OF STUDY (STUDY DURATION: 101 WK), Dose: 0, 300, 1000, 3000 PPM IN DIET FOR THE DURATION OF STUDY (STUDY DURATION: 101 WK)) “inactive; negative”; (Species: RAT, Route: ORAL, Tumor Site: Type of Lesion: BILE DUCT) “active; positive”; (Species: RAT, Strain/Sex: F344/FEMALE, Route: GAVAGE, Dose: 0, 25, 50, 100 MG/KG BW IN CORN OIL 1/D 5 D/WK FOR 103 WK (STUDY DURATION: 103 WK), Dose: 0, 25, 50, 100 MG/KG BW IN CORN OIL 1/D 5 D/WK FOR 103 WK (STUDY DURATION: 103 WK), Tumor Site: Type of Lesion: KIDNEY (RENAL TUBULE): ADENOMA) “equivocal”. The carcinogen call was “active; positive” (Species: RAT, Strain/Sex: F344/MALE, Route: GAVAGE, Dose: 0, 25, 50, 100 MG/KG BW IN CORN OIL 1/D 5 D/WK FOR 103 WK (STUDY DURATION: 103 WK), Dose: 0, 25, 50, 100 MG/KG BW IN CORN OIL 1/D 5 D/WK FOR 103 WK (STUDY DURATION: 103 WK), Tumor Site: Type of Lesion: KIDNEY (RENAL TUBULE): ADENOMA); “active; positive” (Species: RAT, Strain/Sex: SPRAGUE-DAWLEY/FEMALE, Route: ORAL, Dose: 0, 333, 1000, 2000 PPM IN DIET FOR DURATION OF STUDY ADMINISTERED TO RATS EXPOSED TO THE SAME DOSES DURING GESTATION AND, Dose: 0, 333, 1000, 2000 PPM IN DIET FOR DURATION OF STUDY ADMINISTERED TO RATS EXPOSED TO THE SAME DOSES DURING GESTATION AND, Tumor Site: Type of Lesion: LIVER: CHOLANGIOCARCINOMA, PARENCHYMAL TUMORS); “active; positive” (Species: RAT, Strain/Sex: SPRAGUE-DAWLEY/MALE, Route: ORAL, Dose: 0, 333, 1000, 2000 PPM IN DIET FOR DURATION OF STUDY ADMINISTERED TO RATS EXPOSED TO THE SAME DOSES DURING GESTATION AND, Dose: 0, 333, 1000, 2000 PPM IN DIET FOR DURATION OF STUDY ADMINISTERED TO RATS EXPOSED TO THE SAME DOSES DURING GESTATION AND, Tumor Site: Type of Lesion: LIVER: CHOLANGIOCARCINOMA, PARENCHYMAL TUMORS).

For `CCN=c1cc2oc3cc(NCC)c(C)cc3c(-c3ccccc3C(=O)OCC)c-2cc1C`, the carcinogen call is “inactive; negative” (Species: MOUSE, Strain/Sex: B6C3F1/FEMALE, Route: ORAL, Dose: 0, 500, 1000 PPM IN FEED FOR 103 WK (STUDY DURATION: 105 WK), Dose: 0, 500, 1000 PPM IN FEED FOR 103 WK (STUDY DURATION: 105 WK)); “inactive; negative” (Species: MOUSE, Strain/Sex: B6C3F1/MALE, Route: ORAL, Dose: 0, 1000, 2000 PPM IN FEED FOR 103 WK (STUDY DURATION: 105 WK), Dose: 0, 1000, 2000 PPM IN FEED FOR 103 WK (STUDY DURATION: 105 WK)); “equivocal” (Species: RAT, Strain/Sex: F344/FEMALE, Route: ORAL, Dose: 0, 120, 250 PPM IN FEED FOR 103 WK (STUDY DURATION: 105 WK), Dose: 0, 120, 250 PPM IN FEED FOR 103 WK (STUDY DURATION: 105 WK), Tumor Site: Type of Lesion: ADRENAL GLAND: PHEOCHROMOCYTOMA OR MALIGNANT PHEOCHROMOCYTOMA); “equivocal” (Species: RAT, Strain/Sex: F344/MALE, Route: ORAL, Dose: 0, 120, 250 PPM IN FEED FOR 103 WK (STUDY DURATION: 105 WK), Dose: 0, 120, 250 PPM IN FEED FOR 103 WK (STUDY DURATION: 105 WK), Tumor Site: Type of Lesion: INTEGUMENTARY SYSTEM: KERATOACANTHOMA).

Consider `O=C(O)CCl`, for which the carcinogen call reads like this: (Species: MOUSE, Strain/Sex: B6C3F1/FEMALE, Route: GAVAGE, Dose: 0, 50, 100 MG/KG IN DEIONIZED WATER 5 D/WK FOR 104 WK (STUDY DURATION: 104 WK), Dose: 0, 50, 100 MG/KG IN DEIONIZED WATER 5 D/WK FOR 104 WK (STUDY DURATION: 104 WK)) “inactive; negative”; (Species: MOUSE, Strain/Sex: B6C3F1/MALE, Route: GAVAGE, Dose: 0, 50, 100 MG/KG IN DEIONIZED WATER 5 D/WK FOR 104 WK (STUDY DURATION: 104 WK), Dose: 0, 50, 100 MG/KG IN DEIONIZED WATER 5 D/WK FOR 104 WK (STUDY DURATION: 104 WK)) “inactive; negative”; (Species: RAT, Strain/Sex: F344/FEMALE, Route: GAVAGE, Dose: 0, 15, 30 MG/KG IN DEIONIZED WATER 5 D/WK FOR 104 WK (STUDY DURATION: 105 WK), Dose: 0, 15, 30 MG/KG IN DEIONIZED WATER 5 D/WK FOR 104 WK (STUDY DURATION: 105 WK)) “inactive; negative”; (Species: RAT, Strain/Sex: F344/MALE, Route: GAVAGE, Dose: 0, 15, 30 MG/KG IN DEIONIZED WATER 5 D/WK FOR 104 WK (STUDY DURATION: 105 WK), Dose: 0, 15, 30 MG/KG IN DEIONIZED WATER 5 D/WK FOR 104 WK (STUDY DURATION: 105 WK)) “inactive; negative”; (Species: RAT, Strain/Sex: F344/MALE, Route: ORAL, Dose: O, 0.05, 0.5, 2 G/L IN DRINKING WATER FOR 104 WK, THE 2.5 G/L CONCENTRATION WAS LOWERED TO 1.5 G/L AT 8 WK THEN TO 1 G/L, Dose: O, 0.05, 0.5) “inactive; negative”.

On to `C[C@]12C=CC(=O)C=C1CC[C@@H]1[C@@H]2[C@@H](O)C[C@@]2(C)[C@H]1CC[C@]2(O)C(=O)CO`, for which the carcinogen call is “inactive; negative” (Species: RAT, Strain/Sex: SPRAGUE-DAWLEY/FEMALE, Route: GAVAGE, Dose: 0, 3 MG/KG ADMINISTERED 1, 2, 4.5 OR 9 TIMES PER MO FOR 18 MO TO GIVE MEDIAN TOTAL DOSES OF 54, 108, 234, 468 MG/KG (STU, Dose: 0, 3 MG/KG ADMINISTERED 1, 2, 4.5 OR 9 TIMES PER MO FOR 18 MO TO GIVE MEDIAN TOTAL DOSES OF 54, 108, 234, 468 MG/KG (STU) and “active; positive” (Species: RAT, Strain/Sex: SPRAGUE-DAWLEY/MALE, Route: ORAL, Dose: 0, 40 UG/ML IN DRINKING WATER FOR AN AVERAGE DAILY DOSE OF 368 UG/KG FOR 104 WK (STUDY DURATION: 104 WK), Tumor Site: Type of Lesion: LIVER: HEPATOCELLULAR ADENOMA OR CARCINOMA).
